Results taken from US20030119862A1, “Pharmaceutical combination” (priority 2001, published 2003).
Read-outs that look alike come from different tables or passages of the source.

System: isolated human neutrophils
Assay: Inhibition of fMLP-induced elastase release from isolated human neutrophils
Assay type: cell-based
Settings: read-out: Inhibition of elastase release (IC50)
Method: Test data—Inhibition of Elastase Release from Isolated Human Neutrophils
The dextran/blood was mixed gently by inversion and left to stand at room temperature for 45 minutes to allow erythrocyte sedimentation. Aliquots of 16 ml from the leukocyte-rich supernatant were overlaid on 10 ml Ficoll-Hypaque cushions in 50 ml polypropylene centrifuge tubes and the tubes centrifuged at 400 g for 35 mins at 21° C. The plasma, mononuclear cell layer and Ficoll were removed leaving the granulocyte-rich pellet. The pellets were initially re-suspended in 10 ml ice-cold distilled water for 45 seconds to lyse contaminating red blood cells, followed by the addition of 10 ml of ice-cold double concentrated phosphate buffered saline (PBS) solution to each tube to restore osmolarity. The suspensions were re-centrifuged at 200 g for 10 min at 4° C. to generate neutrophil pellets. The supernatants were removed and the pellets gently resuspended in a total volume of 10 ml ice-cold HBSS using a Pasteur pipette. A differential white cell count was performed on the resulting neutrophil suspension using a Beckman Coulter Ac. T5 haematology analyser and the cells stored on ice until assay. Immediately prior to assay, aliquots of the neutrophil suspension were removed and diluted to a count of 4×10^6 neutrophils/ml ice-cold HBSS containing 2U/ml adenosine deaminase.
Inhibition of fMLP induced elastase release was performed using a 160 μl assay volume in 96-well polystyrene microtiter plates. Elastase release was assayed by measuring the rate of cleavage of the synthetic substrate MeOSuc-Ala-Ala-Pro-Val-pNA. […] Assay plates were incubated at 37° C. for 10 minutes before addition of 8 μl of 2 μM fMLP (in HBSS) and measurement of rate of substrate cleavage was measured at λ=405 nm for 3 minutes at 37° C. Basal elastase, release was determined by the addition of 8 μl HBSS in place of fMLP. […] In the case of the combination experiments, 1000 nM of Ariflo (trade mark) (A) (also known as cilomilast) or 9-cyclopentyl-5,6-dihydro-7-ethyl-3-(2-thienyl)-9H-pyrazolo[3,4-c]-1,2,4-triazolo[4,3-α]pyridine and 9-cyclopentyl-5,6-dihydro-7-ethyl-3-(tert-butyl)-9H-pyrazolo[3,4-c]-1,2,4-triazolo[4,3-c]pyridine (C) were added to the assay and a concentration response curve was then generated for formoterol (F) or salmeterol (S).

[1] = Neutrophil, single agent, fMLP-induced elastase release, isolated human neutrophils

| SMILES | IC50 [1] | further results |
| --- | --- | --- |
| COc1ccc([C@]2(C#N)CC[C@@H](C(=O)O)CC2)cc1OC1CCCC1 [A, cilomilast] | > 1000 nM |  |
| CCc1nn(C2CCCC2)c2c1CCn1c(-c3cccs3)nnc1-2 [C, 9-cyclopentyl-5,6-dihydro-7-ethyl-3-(2-thienyl)-9H-pyrazolo[3,4-c]-1,2,4-triazolo[4,3-α]pyridine and 9-cyclopentyl-5,6-dihydro-7-ethyl-3-(tert-butyl)-9H-pyrazolo[3,4-c]-1,2,4-triazolo[4,3-c]pyridine] |  | IC50 (single agent, fMLP-induced elastase release, isolated human neutrophils): > 1000 nM |
| COc1ccc(CC(C)NCC(O)c2ccc(O)c(NC=O)c2)cc1 (stereo not shown) [F, N-[2-hydroxy-5-(1-hydroxy-2-((2-(4-methoxyphenyl)-1-methylethyl)amino)ethyl)phenyl]formamide] |  | IC50 (Homo sapiens, Neutrophil): > 1000 nM |
| OCc1cc(C(O)CNCCCCCCOCCCCc2ccccc2)ccc1O (stereo not shown) [S, salmeterol] | > 1000 nM |  |
